# Laboratory results: US20120231097A1, “MEDICINAL COMPOSITION AND USAGE” (priority 2009, published 2012)
# Tested on: human colon cancer cell strain colon 38
# Test: Anti-tumor effect with 5-fluorouracil in human cancer xenograft tumor animal model
# Type: in vivo
# Conditions: after 4 weeks
# From the text: According to methods described in “Methodology in Pharmacological Research of Traditional Chinese Medicine” (People's Medical Publishing House), test the anti-tumor effects of Formula A, B, C, D traditional Chinese medicine composition prepared from Embodiment 1-4 along with chemotherapy drugs (5-fluorouracil) for human cancer xenograft tumor animal model. 5-fluorouracil (fu) is broad spectrum anti-tumor medicine, it is mainly used to treat digestive tract tumor, commonly seen adverse reactions include nausea, reduced appetite or vomit, abdomen discomfort or diarrhea. About the test method, use human colon cancer cell strain colon 38 to inoculate subcutaneously in 18-23 g mouse, 14 days after the inoculation, respectively ingest Formula A, B, C, D traditional Chinese medicine composition prepared from Embodiment 1-4 into the stomach of each group of animals, the dosage is 500 mg/kg; 0.5-1 hour after stomach ingestion, inject 5-fluorouracil into abdomen, the dosage is 30 mg/kg. Execute stomach ingestion and drug injection twice each week, totaling 4 weeks.
smiles,measurement,setting,value
"O=c1[nH]cc(F)c(=O)[nH]1 [fu, 5-fluorouracil]",Average tumor weight,"formula 500 mg/kg into stomach, fu 30 mg/kg into abdomen, twice each week",0.42 ± 0.11 g
same,Death number,of 10 supplied mice,5
same,Tumor inhibition rate (%),versus CK group's average tumor weight,64%
